Results from ChEMBL document CHEMBL4043145, “Pyridine-pyrimidine amides that prevent HGF-induced epithelial scattering by two distinct mechanisms” (Bioorg Med Chem Lett, 2017).

Legend:
Assay type in all cases: functional
A2780 [1] = assay: Cell cycle arrest in human A2780 cells assessed as accumulation at G1 phase at 300 nM (reference value: 55.26 to 55.66%)
PC-3 [2] = assay: Cell cycle arrest in human p53-null PC3 cells assessed as accumulation at G2/M phase at 1000 nM (reference value: 18.37 to 18.96%)
PC-3 [3] = assay: Cell cycle arrest in human p53-null PC3 cells assessed as accumulation at G1 phase at 100 nM (reference value: 50.77 to 51.16%)
MFE-280 [4] = assay: Cell cycle arrest in human MFE280 cells assessed as accumulation at G2/M phase at 100 nM (reference value: 16.43 to 17.9%)
MFE-296 [5] = assay: Cell cycle arrest in human MFE296 cells assessed as accumulation at G1 phase at 1000 nM (reference value: 61.05 to 64.87%)
MFE-296 [6] = assay: Cell cycle arrest in human MFE296 cells assessed as accumulation at G1 phase at 100 nM (reference value: 61.05 to 64.87%)
MFE-296 [7] = assay: Cell cycle arrest in human MFE296 cells assessed as accumulation at S phase at 300 nM (reference value: 16.96 to 19.19%)
A2780 [8] = assay: Induction of apoptosis in human A2780 cells assessed as viable cells at 1000 nM by 7-AAD/Annexin staining-based assay (reference value: 95 to 96.7%); details: read-out: Activity
A2780 [9] = assay: Induction of apoptosis in human A2780 cells assessed as early apoptotic cells at 1000 nM by 7-AAD/Annexin staining-based assay (reference value: 1.7 to 2.1%)
A2780 [10] = assay: Induction of apoptosis in human A2780 cells assessed as late apoptotic cells at 1000 nM by 7-AAD/Annexin staining-based assay (reference value: 1.2 to 2.2%)
A2780 [11] = assay: Induction of apoptosis in human A2780 cells assessed as viable cells at 300 nM by 7-AAD/Annexin staining-based assay (reference value: 95 to 96.7%); details: read-out: Activity
A2780 [12] = assay: Induction of apoptosis in human A2780 cells assessed as early apoptotic cells at 300 nM by 7-AAD/Annexin staining-based assay (reference value: 1.7 to 2.1%)
MCF7 [13] = assay: Induction of apoptosis in human MCF7 cells assessed as viable cells at 1000 nM by 7-AAD/Annexin staining-based assay (reference value: 92.6 to 96.8%); details: read-out: Activity
MCF7 [14] = assay: Induction of apoptosis in human MCF7 cells assessed as early apoptotic cells at 1000 nM by 7-AAD/Annexin staining-based assay (reference value: 2 to 2.7%)
MCF7 [15] = assay: Induction of apoptosis in human MCF7 cells assessed as nuclear debris at 1000 nM by 7-AAD/Annexin staining-based assay (reference value: 0.2 to 3%)
MCF7 [16] = assay: Induction of apoptosis in human MCF7 cells assessed as nuclear debris at 300 nM by 7-AAD/Annexin staining-based assay (reference value: 0.2 to 3%)
MCF7 [17] = assay: Induction of apoptosis in human MCF7 cells assessed as viable cells at 100 nM by 7-AAD/Annexin staining-based assay (reference value: 92.6 to 96.8%); details: read-out: Activity
MCF7 [18] = assay: Induction of apoptosis in human MCF7 cells assessed as early apoptotic cells at 100 nM by 7-AAD/Annexin staining-based assay (reference value: 2 to 2.7%)
PC-3 [19] = assay: Induction of apoptosis in human p53-null PC3 cells assessed as viable cells at 1000 nM by 7-AAD/Annexin staining-based assay (reference value: 96.5 to 98.6%); details: read-out: Activity
PC-3 [20] = assay: Induction of apoptosis in human p53-null PC3 cells assessed as nuclear debris at 1000 nM by 7-AAD/Annexin staining-based assay (reference value: 0.1 to 0.5%)
PC-3 [21] = assay: Induction of apoptosis in human p53-null PC3 cells assessed as viable cells at 100 nM by 7-AAD/Annexin staining-based assay (reference value: 96.5 to 98.6%); details: read-out: Activity
PC-3 [22] = assay: Induction of apoptosis in human p53-null PC3 cells assessed as early apoptotic cells at 100 nM by 7-AAD/Annexin staining-based assay (reference value: 0.6 to 1.4%)
PC-3 [23] = assay: Induction of apoptosis in human p53-null PC3 cells assessed as nuclear debris at 100 nM by 7-AAD/Annexin staining-based assay (reference value: 0.1 to 0.5%)
MFE-280 [24] = assay: Induction of apoptosis in human MFE280 cells assessed as nuclear debris at 300 nM by 7-AAD/Annexin staining-based assay (reference value: 0.5 to 2.3%)
MFE-280 [25] = assay: Induction of apoptosis in human MFE280 cells assessed as nuclear debris at 100 nM by 7-AAD/Annexin staining-based assay (reference value: 0.5 to 2.3%)
MFE-296 [26] = assay: Induction of apoptosis in human MFE296 cells assessed as late apoptotic cells at 1000 nM by 7-AAD/Annexin staining-based assay (reference value: 3.6 to 6.6%)
MFE-296 [27] = assay: Induction of apoptosis in human MFE296 cells assessed as nuclear debris at 1000 nM by 7-AAD/Annexin staining-based assay (reference value: 0.4 to 0.8%)
MFE-296 [28] = assay: Induction of apoptosis in human MFE296 cells assessed as viable cells at 300 nM by 7-AAD/Annexin staining-based assay (reference value: 90.9 to 94.4%); details: read-out: Activity
MFE-296 [29] = assay: Induction of apoptosis in human MFE296 cells assessed as early apoptotic cells at 300 nM by 7-AAD/Annexin staining-based assay (reference value: 1.5 to 2.1%)
MFE-296 [30] = assay: Induction of apoptosis in human MFE296 cells assessed as late apoptotic cells at 100 nM by 7-AAD/Annexin staining-based assay (reference value: 3.6 to 6.6%)
T47D [31] = assay: Induction of apoptosis in human T47D cells assessed as early apoptotic cells at 1000 nM by 7-AAD/Annexin staining-based assay (reference value: 1.6 to 4.3%)
T47D [32] = assay: Induction of apoptosis in human T47D cells assessed as nuclear debris at 1000 nM by 7-AAD/Annexin staining-based assay (reference value: 0.2 to 7.7%)
T47D [33] = assay: Induction of apoptosis in human T47D cells assessed as viable cells at 300 nM by 7-AAD/Annexin staining-based assay (reference value: 74.5 to 94.5%); details: read-out: Activity
T47D [34] = assay: Induction of apoptosis in human T47D cells assessed as nuclear debris at 300 nM by 7-AAD/Annexin staining-based assay (reference value: 0.2 to 7.7%)
T47D [35] = assay: Induction of apoptosis in human T47D cells assessed as early apoptotic cells at 100 nM by 7-AAD/Annexin staining-based assay (reference value: 1.6 to 4.3%)
T47D [36] = assay: Induction of apoptosis in human T47D cells assessed as nuclear debris at 100 nM by 7-AAD/Annexin staining-based assay (reference value: 0.2 to 7.7%)

Row | SMILES | viability at 1 µM (A2780 [8]) [%] | Activity (A2780 [9]) [%] | Activity (A2780 [10]) [%] | viability at 0.3 µM (A2780 [11]) [%] | Activity (A2780 [12]) [%] | viability at 1 µM (MCF7 [13]) [%] | Activity (MCF7 [14]) [%] | Activity (MCF7 [15]) [%] | Activity (MCF7 [16]) [%] | viability at 0.1 µM (MCF7 [17]) [%] | Activity (MCF7 [18]) [%] | viability at 1 µM (PC-3 [19]) [%] | Activity (PC-3 [20]) [%] | viability at 0.1 µM (PC-3 [21]) [%] | Activity (PC-3 [22]) [%] | Activity (PC-3 [23]) [%] | Activity (MFE-280 [24]) [%] | Activity (MFE-280 [25]) [%] | Activity (MFE-296 [26]) [%] | Activity (MFE-296 [27]) [%] | other results
1 | O=C(Nc1ccc(-c2cccc(Cl)c2)cn1)c1cncnc1 | 90 | 4.5 | 4.1 | 92.1 | 3.5 | 94 | 3.3 | 0.3 | 0.5 | 94.4 | 3.3 | 97 | 0.5 | 98.9 | 0.6 | 0.1 | 0.7 | 0.6 | 9.1 | 2.9 | Activity (A2780 [1]): 24.74%; Activity (PC-3 [2]): 76.06%; Activity (PC-3 [3]): 51.5%; Activity (MFE-280 [4]): 18.95%; Activity (MFE-296 [5]): 8.62%; Activity (MFE-296 [6]): 53.3%; Activity (MFE-296 [7]): 20.61%; viability at 0.3 µM (MFE-296 [28]): 86.5%; Activity (MFE-296 [29]): 2.8%; Activity (MFE-296 [30]): 5.7%; Activity (T47D [31]): 12%; Activity (T47D [32]): 0.6%; viability at 0.3 µM (T47D [33]): 86.5%; Activity (T47D [34]): 0.3%; Activity (T47D [35]): 5.1%; Activity (T47D [36]): 0.2%
2 | CN[C@@H]1C[C@H]2O[C@@](C)([C@@H]1OC)n1c3ccccc3c3c4c(c5c6ccccc6n2c5c31)C(=O)NC4 [STAUROSPORINE] | 57.8 | 5.1 | 32.8 | 87.1 | 3.4 | 62.1 | 3.5 | 9.6 | 1.1 | 93 | 3.4 | 97.3 | 0.2 | 98 | 1.2 | 0.1 | 0.9 | 1.1 | 60.3 | 15.1 | viability at 0.3 µM (MFE-296 [28]): 57.2%; Activity (MFE-296 [29]): 6.8%; Activity (MFE-296 [30]): 6.6%; Activity (T47D [31]): 6.2%; Activity (T47D [32]): 0.6%; viability at 0.3 µM (T47D [33]): 90.6%; Activity (T47D [34]): 0.4%; Activity (T47D [35]): 2.5%; Activity (T47D [36]): 0.1%
